Reference: patent US9902735B2, “Heteroaryl substituted compounds as RORγ inhibitors” (GlaxoSmithKline Intellectual Property Developement Limited, priority 2014, dated 2018)

Key:
[1] = test system: C57BL/6NTac mice; experiment: Imiquimod-induced skin inflammation, ear-only model (ear thickness); format: in vivo, mouse; details: for imiquimod-induced ear thickening: oral gavage twice daily, Studies 1-4
Text: (§1) Imiquimod is an immune modifying agent that potently activates specific Toll-like receptors (e.g., TLR7) and induces irritation/inflammation of the skin that requires the IL23R/RORγ/IL17 axis of the immune system (van der Fits et al, (2009) J Immunol; 182:5836-5845; Gray et al, (2013) Nature Immunol; June; 14(6):584-92). The imiquimod-induced skin inflammation model can be used to assess the ability of an RORγ inhibitor to reduce Th17-driven inflammation in mice. For the ear-only skin inflammation model in which ear thickness was measured with digital engineer's calipers (Mitutoyo PK-0505), female wild type C57BL/6NTac mice obtained from Taconic (Hudson, N.Y.) at 8 to 12 wk of age received a daily topical dose of 10 mg of commercially available imiquimod cream (5%) (Aldara; Medicis) distributed over both ears at approximately 11:00 h for up to 4 consecutive days. Alternatively, 72 mg of Aldara was distributed over both ears and the shaved/depiliated back skin of mice at approximately 11:00 h for 3 consecutive days to examine RORγ-dependent gene expression (RNA isolated from both ears using Qiazol followed by clean-up on with the RNeasy protocol (Qiagen, Germantown, Md.); Taqman probe/primer sets for B2M (Mm00437762_ml), IL-17A (Mm00439619_ml), IL-17F (Mm00521423_ml), or IL-22 (Mm00444241_ml) (Thermo Fisher Scientific, Inc., Waltham, Mass.) and ex vivo stimulated (anti-CD3 (2 μg/ml, clone eBio500A2, eBioscience, San Diego, Calif.), anti-CD28 (1 μg/ml, clone 37.51, BD Bioscience, San Jose, Calif.), recombinant mouse IL-13 (20 ng/ml, R&D Systems, Minneapolis, Minn.), and recombinant mouse IL-23 (20 ng/ml, R&D Systems, Minneapolis, Minn.) IL-17A protein expression from whole blood (Meso Scale Discovery, Rockville, Md.). For treatment of the skin inflammation in these models, each compound or vehicle (methylcellulose in water, 1% w/v, Sigma Aldrich, St. Louis, Mo.) was administered via oral gavage at approximately 08:00 h and 16:00 h daily at various doses selected from 1, 3, 10, and 30 mg/kg.

[2] = test system: C57BL/6NTac mice; experiment: Imiquimod-induced skin inflammation, ears and back skin: RORγ-dependent gene expression and ex vivo stimulated whole blood IL-17A; format: in vivo, mouse
Text: as §1

In the case of `Cc1c(CN2CCN(C(=O)C3CCCC3)[C@@H](C)C2)cc(Cl)cc1NC(=O)CCS(C)(=O)=O` [Example 43, (S)—N-(5-chloro-3-((4-(cyclopentanecarbonyl)-3-methylpiperazin-1-yl)methyl)-2-methylphenyl)-3-(methylsulfonyl)propanamide], the imiquimod-induced ear thickening ([1]; 10 mg/kg) was “statistically significant reduction”, the imiquimod-induced ear thickening ([1]; 30 mg/kg) was “statistically significant reduction” and the “imiquimod-induced ear thickening, versus vehicle (FIG. 1)” value ([1]; FIG. 1, dose not stated) was “statistically significant reduction”. For the same compound, the “IL17A protein expressed following ex vivo stimulation of whole blood” value ([2]; study A, 10 mg/kg oral) was “significantly reduced”, the “ear mRNA levels of IL17A, IL17F, or IL22” value ([2]; study A, 10 mg/kg oral) was “no significant reduction” and the “IL17F mRNA levels in the ear skin” value ([2]; study B, 10 mg/kg oral) was “significantly reduced”. The “IL22 mRNA levels in the ear skin” value ([2]; study B, 10 mg/kg oral) was “significantly reduced” and the “IL17A mRNA levels in the ear skin” value ([2]; study C) was “reached statistical significance”.
